The text below walks through data of US20220022457A1, “Microbicide Ammonium-Imidazolium Oligomers and Their Anti-Fungal Compositions” (AGENCY FOR SCIENCE, TECHNOLOGY AND RESEARCH, priority 2018, published 2022).

The subject of data set [1] is Escherichia coli (ATCC 8739, Gram-negative). As to the kind of experiment: Minimum inhibitory concentration, microdilution assay. It counts as cell-based. Particulars: lowest concentration with no visible growth; for MIC E.C.: 24 h. As for the experimental part:
(§1) Staphylococcus aureus (ATCC 6538, Gram-positive), Escherichia coli (ATCC 8739, Gram-negative), Pseudomonas aeruginosa (ATCC 9027, Gram-negative), and Candida albicans (ATCC 10231, fungus) were used as representative microorganisms to challenge the antimicrobial functions of the oligomers. All bacteria and fungus were frozen at -80° C., and were grown overnight at 37° C. in Mueller Hinton Broth (MHB, BD Singapore) prior to experiments. Fungus was grown overnight at 22° C. in Yeast Mold Broth (YMB, BD Singapore). […] The plates were incubated at 37° C. for 24 h with constant shaking speed at 300 rpm. […] Medium solution containing microbial cells alone were used as control (100% microbial growth). The assay was performed in four replicates and the experiments were repeated at least two times.
On the technique in general: In broth dilution the organism is exposed to a series of concentrations in liquid medium.

Data set [2] deals with Pseudomonas aeruginosa (ATCC 9027, Gram-negative). The data set is described as above. The format is cell-based. Particulars: lowest concentration with no visible growth; for MIC P.A.: 24 h. As for the experimental part:
as §1

Data set [3] relates to Staphylococcus aureus (ATCC 6538, Gram-positive). Described as above. It counts as cell-based. Conditions: lowest concentration with no visible growth; for MIC S.A.: 24 h. As for the experimental part:
as §1

Data set [4] relates to Candida albicans (ATCC 10231, fungus). The description is as above. Conditions: for MIC C.A. / MIC: Candida albicans ~10^6 CFU/ml, YMB, room temperature, no visible growth; for MIC50 C.A. (value in brackets): Candida albicans, concentration inhibiting 50% fungal growth; for MIC: ATCC10231. It counts as cell-based. The protocol: as §1, with “The plates were incubated at 37° C. for 24 h with constant shaking speed at 300 rpm.” left out

The next data set has as its system C. albicans. Put plainly: Checkerboard assay of oligomers with triazoles (FIC). It counts as cell-based. Particulars: Candida albicans; for FIC with Fluconazole: calculated from lowest concentration inhibiting at least 50% growth. As for the experimental part:
[…]. […] A row and a column in which a serial dilution of each agent was present alone were also prepared for MIC test. Then each solution in the well plate was inoculated with 100 μL of logarithmically grown 10^6 cells/ml C. albicans cells in the 96-well plate. The plate also contained a column with C. albicans only as control (100% cell growth). The cells were incubated at room temperature for 24 h with constant shaking, after which cell growth (i.e. the O.D. at 600 nm) was monitored with a microplate reader (TECAN) Synergy between fluconazole and oligomers was determined by calculating the fractional inhibitory concentration index ([…] was calculated as follows: FIC=(MIColigomer A in combination/MIColigomer A alone)+(MICazole B in combination/MICazole B alone). […] The interaction of selected oligomers with other triazoles such as itraconazole and voriconazole was also investigated using the checkerboard dilution method. For comparison, the interaction of the selected oligomer with a non-triazole antifungal agent […] was also investigated.

The subject of data set [5] is mouse red blood cells (RBCs). Put plainly: Hemolysis study. Particulars: oligomer concentration giving 10% hemolysis, 1 h, 37° C. The format is cell-based. As for the experimental part:
After 1 h incubation at 37° C., the mixture was centrifuged at 2000 rpm for 5 min. Aliquots (100 μl) of the supernatant were transferred to a 96-well plate. Hemolytic activity was determined as a function of hemoglobin release by measuring absorbance of the supernatant at 576 nm using a microplate reader. A control solution that contained only PBS was used as a reference for 0% hemolysis. Absorbance of red blood cells lysed with 0.5% Triton-X was taken as 100% hemolysis. The oligomer concentration which results in 10% hemolysis is indicated as HC10 in Table 1. The data were expressed as mean and S.D. of four replicates. % Hemolysis=[OD576 nm (polymer)−OD576 nm (PBS)]/[OD576 nm (Triton-X)−OD576 nm (PBS)]×100%

Data set [6] can be described thus: Critical micelle concentration. The format is physicochemical.
[7] abbreviates: triazole in combination with IDPBX8.
[8] abbreviates: triazole in combination with IDPPX8.

In brackets after ≈: the same amount, converted by molar mass. Several values for one entry are separate records, joined by “and”; a condition that tells them apart may be missing. Equal values may be shown once.

For the compound `CCCCCCCC[N+]12CC[N+](Cc3ccccc3C[N+]34CC[N+](CCCCCCCC)(CC3)CC4)(CC1)CC2.[Br-].[Br-].[Br-].[Br-]` [DDO8], in data set [1], the “MIC E.C.” value amounted to 8 µg/mL. The “MIC P.A.” value in data set [2] was 62 µg/mL. In data set [3], the “MIC S.A.” value amounted to 4 µg/mL. Further, in data set [4], the “MIC C.A.” value is 125 µg/mL and the “MIC50 C.A. (value in brackets)” value is given as “(16) μg/ml”. For the same compound, in the data set with C. albicans, the “FIC with Fluconazole” value is reported as 0.38. The compound also returned an HC10 in data set [5] of more than 2000 µg/mL. The compound also had a CMC in data set [6] of 3038 µg/mL.

`CCCCCCCC[N+]12CC[N+](Cc3ccc(C[N+]45CC[N+](CCCCCCCC)(CC4)CC5)cc3)(CC1)CC2.[Br-].[Br-].[Br-].[Br-]` [DDP8]: the “MIC E.C.” value in data set [1] amounted to 16 µg/mL. For the same compound, in data set [2], the “MIC P.A.” value is 2000 µg/mL. Also, in data set [3], the “MIC S.A.” value came out at 16 µg/mL. In addition, in data set [4], the “MIC C.A.” value was found to be 500 µg/mL and the “MIC50 C.A. (value in brackets)” value is reported as “(31) μg/ml”. Also, the “FIC with Fluconazole” value in the data set with C. albicans is given as 0.19. For the same compound, in data set [5], the HC10 is more than 2000 µg/mL. For the same compound, in data set [6], the CMC came out at 1896 µg/mL.

As to `CCCCCCCC[n+]1ccn(Cc2ccc(C[n+]3ccn(Cc4ccc(C[n+]5ccn(Cc6ccccc6Cn6cc[n+](Cc7ccc(Cn8cc[n+](Cc9ccc(Cn%10cc[n+](CCCCCCCC)c%10)cc9)c8)cc7)c6)c5)cc4)c3)cc2)c1` [IBN-C8, reference compound], the minimum inhibitory concentration (MIC) (usually the least concentration at which growth counts as inhibited) in data set [1] (ATCC8739, 24 h) turned out to be 8 µg/mL; in data set [2] (ATCC9027, 24 h), 16 µg/mL; in data set [3] (ATCC6538, 24 h) it was 4 µg/mL; in data set [4] it was 16 µg/mL. Besides, the “FIC with Fluconazole” value with C. albicans is reported as 2.00. Besides, the HC10 in data set [5] is more than 2000 µg/mL. Also, the CMC in data set [6] came to 226 µg/mL.

As to `CCCCCCCC[n+]1ccn(CC=CC[N+]23CC[N+](CC=CCn4cc[n+](CCCCCCCC)c4)(CC2)CC3)c1.[Br-].[Br-].[Br-].[Br-]` [IDIB8], in data set [1], the “MIC E.C.” value was 16 µg/mL. For the same compound, in data set [2], the “MIC P.A.” value worked out at 500 µg/mL. For the same compound, the “MIC S.A.” value in data set [3] was 8 µg/mL. Further, in data set [4], the “MIC C.A.” value is more than 500 µg/mL and the “MIC50 C.A. (value in brackets)” value was “(32) μg/ml”. Further, the “FIC with Fluconazole” value with C. albicans is reported as 0.25. The same compound had an HC10 in data set [5] of more than 2000 µg/mL. In data set [6], this compound gave a CMC of 1829 µg/mL.

For the compound `CCCCCCCC[n+]1ccn(Cc2ccccc2C[N+]23CC[N+](Cc4ccccc4Cn4cc[n+](CCCCCCCC)c4)(CC2)CC3)c1.[Br-].[Br-].[Br-].[Br-]` [IDIO8], the “MIC E.C.” value in data set [1] stood at 16 µg/mL. Moreover, in data set [2], the “MIC P.A.” value stood at 250 µg/mL. Further, the “MIC S.A.” value in data set [3] was determined as 8 µg/mL. For the same compound, in data set [4], the “MIC C.A.” value amounted to 62 µg/mL and the “MIC50 C.A. (value in brackets)” value is “(32) μg/ml”. In the data set with C. albicans, the “FIC with Fluconazole” value was 0.25. The HC10 in data set [5] was more than 2000 µg/mL. In data set [6], the CMC was 1667 µg/mL.

`CCCCCCCC[n+]1ccn(Cc2ccc(C[N+]34CC[N+](Cc5ccc(Cn6cc[n+](CCCCCCCC)c6)cc5)(CC3)CC4)cc2)c1.[Br-].[Br-].[Cl-].[Cl-]` [IDIP8]: the “MIC E.C.” value in data set [1] worked out at 16 µg/mL. In data set [2], the “MIC P.A.” value was 1000 µg/mL. Also, the “MIC S.A.” value in data set [3] was 2 µg/mL. Also, in data set [4], the “MIC C.A.” value came to 125 µg/mL and the “MIC50 C.A. (value in brackets)” value was “(8) μg/ml”. Moreover, in the data set with C. albicans, the “FIC with Fluconazole” value is 0.25. Further, in data set [5], the HC10 was more than 2000 µg/mL. For the same compound, the CMC in data set [6] worked out at 985 µg/mL.

As for `C(=C\C[N+]12CC[N+](Cc3ccc(C[n+]4ccn(Cc5ccccc5)c4)cc3)(CC1)CC2)/C[N+]12CC[N+](Cc3ccc(C[n+]4ccn(Cc5ccccc5)c4)cc3)(CC1)CC2` [IDPBXb], the “MIC E.C.” value in data set [1] turned out to be 62 µg/mL. The “MIC P.A.” value in data set [2] was more than 1000 µg/mL. In data set [3], the “MIC S.A.” value is 125 µg/mL. In data set [4], the “MIC C.A.” value was more than 1000 µg/mL and the “MIC50 C.A. (value in brackets)” value is “(1000) μg/ml”. This compound gave an HC10 in data set [5] of more than 2000 µg/mL. The CMC in data set [6] came out at 1732 µg/mL.

Turning to `c1ccc(Cn2cc[n+](Cc3ccc(C[N+]45CC[N+](Cc6ccc(C[N+]78CC[N+](Cc9ccc(C[n+]%10ccn(Cc%11ccccc%11)c%10)cc9)(CC7)CC8)cc6)(CC4)CC5)cc3)c2)cc1` [IDPPXb], the “MIC E.C.” value in data set [1] came out at 62 µg/mL. In data set [2], the “MIC P.A.” value is more than 1000 µg/mL. In addition, the “MIC S.A.” value in data set [3] was 125 µg/mL. Further, in data set [4], the “MIC C.A.” value stood at 2000 µg/mL and the “MIC50 C.A. (value in brackets)” value is “(500) μg/ml”. The “FIC with Fluconazole” value with C. albicans was 0.5. The compound also came in with a CMC in data set [6] of 1860 µg/mL.

Take `CCCCCCCC[n+]1ccn(Cc2ccc(Cn3cc[n+](C/C=C/C[N+]45CC[N+](C/C=C/C[n+]6ccn(Cc7ccc(Cn8cc[n+](CCCCCCCC)c8)cc7)c6)(CC4)CC5)c3)cc2)c1.[Br-].[Br-].[Br-].[Br-].[Br-].[Br-]` [IIDPBX8]: the “MIC E.C.” value in data set [1] was 62 µg/mL. Further, the “MIC P.A.” value in data set [2] came out at 250 µg/mL. In addition, in data set [3], the “MIC S.A.” value is 4 µg/mL. In addition, in data set [4], the “MIC C.A.” value amounted to 62 µg/mL and the “MIC50 C.A. (value in brackets)” value is on record as “(8) μg/ml”. Also, in the data set with C. albicans, the “FIC with Fluconazole” value is recorded as 0.31. The same compound showed an HC10 in data set [5] of more than 2000 µg/mL. In addition, the CMC in data set [6] was determined as 291 µg/mL.

As for `CCCCCCCC[n+]1ccn(Cc2ccc(Cn3cc[n+](Cc4ccc(C[N+]56CC[N+](C/C=C/C[N+]78CC[N+](Cc9ccc(C[n+]%10ccn(Cc%11ccc(Cn%12cc[n+](CCCCCCCC)c%12)cc%11)c%10)cc9)(CC7)CC8)(CC5)CC6)cc4)c3)cc2)c1.[Br-].[Br-].[Br-].[Br-].[Br-].[Br-].[Br-].[Br-]` [IIDPPBX8], the “MIC E.C.” value in data set [1] was found to be 31 µg/mL. Further, in data set [2], the “MIC P.A.” value worked out at 125 µg/mL. In addition, the “MIC S.A.” value in data set [3] stood at 8 µg/mL. Also, in data set [4], the “MIC C.A.” value is 31 µg/mL and the “MIC50 C.A. (value in brackets)” value is on record as “(2-8) μg/ml”. For the same compound, in the data set with C. albicans, the “FIC with Fluconazole” value is 1.00. The “Alone MIC50 component A” value in the data set with C. albicans (oligomer alone) came to 2 µg/mL. Besides, the “Combined MIC50 component A” value with C. albicans (oligomer in combination with Fluconazole) worked out at 1 µg/mL. Besides, in the data set on C. albicans (oligomer with Fluconazole (Table 2)), the FIC was found to be 1.0. The compound also returned an HC10 in data set [5] of more than 2000 µg/mL. Besides, the CMC in data set [6] came to 727 µg/mL.

In data set [4], `C[C@@H](c1ncncc1F)[C@](O)(Cn1cncn1)c1ccc(F)cc1F` [Voriconazole, voriconazole, reference compound] yielded an MIC of 0.025 to 0.1 µg/mL (≈ 0.0716 to 0.286 µM). Also, the “Combined MIC50 component B” value in the data set with C. albicans (setting [7]) was 0.006 µg/mL; with C. albicans (setting [8]), 0.003 µg/mL.

itraconazole [reference compound]: the “MIC C.A.” value in data set [4] was 0.016 to 0.03 µg/mL. Besides, the “Alone MIC50 component B” value with C. albicans (triazole alone) was 0.016 µg/mL and 0.03 µg/mL. Further, the “Combined MIC50 component B” value worked out at 0.015 µg/mL in the data set with C. albicans (setting [7]) and 0.004 µg/mL in the data set with C. albicans (setting [8]).
